“And” between values parts separate entries of the source, which are not always exact repeats. Identical values can stand only once. “Also recorded” adds a separate entry of the source. Like-named read-outs stand apart in the source and are kept apart here. One block for each compound: values may come before it.
Key:
[1] = Phase 1 double-masked multiple-dose plasma PK study of roflumilast topical ophthalmic suspension (0.3%); format: in vivo, human; settings: for plasma profile, fluctuation between peak (Cmax) and trough (pre-dose): Day 8; for accumulation ratios (RAUC0-12): by Day 8, mean (SD)
Description: A pharmacokinetic (PK) study of a roflumilast topical ophthalmic suspension was conducted. Data at Day 1 (Example 15), Day 8 (Example 16), and comparative data (Example 17) is provided.
The study was a Phase 1, double-masked, multiple-dose study conducted in healthy volunteers. The multiple-dose study was conducted over a single dose level where participants were randomly assigned to receive a masked dose of roflumilast topical ophthalmic suspension eye drops (n=14) or vehicle only (n=2) as set forth in Table 7, administered as a single drop in each eye BID (twice daily, every 12 hours) for seven days, followed by a single morning dose on Day 8.
Blood samples were collected at multiple time points on Days 1, 2, 8, and 9. The following nominal blood sampling time points were used for the PK assessment of roflumilast topical ophthalmic suspension and its main active metabolite on days 1 and 8:
Roflumilast topical ophthalmic suspension and roflumilast n-oxide (metabolite) concentrations in plasma were evaluated using Phoenix™ WinNonlin® version and 8.4 (Pharsight Corporation, USA). For both analytes, the upper limit of quantification (ULOQ) was […] and the lower limit of quantification (LLOQ) was […].
Analysis Procedures: Actual collection times were used for PK parameter determinations, calculated with respect to the dose time. Time points preceding Cmax, the first measurable concentration that was BLOQ were set to zero for PK parameter determination. Where the final plasma concentration was BLOQ, the concentration at the preceding time point was deemed to be the last measurable concentration for calculation of λz. AUC parameters were determined by the linear-up, log-down trapezoidal rule. λz was determined by log-linear regression obtained on at least the 3 last quantifiable concentrations (not including Cmax); the default “best fit” method by Phoenix WinNonlin was used for the selection of slopes to determine λz. In addition, every PK profile was scrutinized visually and adjustments made to the slope selection, where necessary. The goodness of fit of the regression was evaluated using the square of the correlation coefficient (adjusted R2) which was required to be at least 0.8 for the λz l value to be considered reliable. Regression-based parameters (AUC0-inf, t1/2) were calculated if the adjusted R2 value of the regression line was greater than or equal to 0.8 and residual area <20%. The time point where the ln-linear λz calculation begins (Lower) and the actual sampling time of the last measurable concentration used to estimate the λz (λz Upper) as well as the R2-adjusted for the ln-linear regression for the calculation of the elimination rate constant were listed.

[2] = set-up: AUC 0-∞: unit not given beside the values; settings: Observed PO (Day 1), single 500 μg dose; cited from earlier work
[3] = plasma, Day 8, mean (SD), topical ocular 0.3% BID 7 days + morning dose

accumulation from the AM to the PM dose (C12 vs Clast) ([1]; Day 1): ~2 fold
plasma profile, fluctuation between peak (Cmax) and trough (pre-dose) [1]: very stable, showing little fluctuation
PTF % (percent peak-to-trough fluctuation) ([1]; Day 8, mean (SD)): 0.893 (0.446) %
RAUC0-12 (accumulation ratio) ([1]; Day 8, mean (SD)): 2.63 (1.39)
AUC0-tau Geometric Mean Ratio (Day 8/Day 1) (90% CI) ([1]; Group 1): 2.37 (1.90-2.94)
C12 (trough) Difference in LS Means (Day 8 − Day 1) (90% CI) ([1]; Group 1): 0.66 (0.45-0.86)
C12 (trough) Geometric Mean Ratio (Day 8/Day 1) (90% CI) ([1]; Group 1): 1.93 (1.57-2.37)
Cmax Geometric Mean Ratio (Day 8/Day 1) (90% CI) ([1]; Group 1): 1.79 (1.41-2.27)
C12 (trough) LS Means ([1]; Group 1, Day 1, n 14): −1.44
C12 (trough) LS Means ([1]; Group 1, Day 8, n 14): −0.78
accumulation ratios (RAUC0-12) [1]: 2.63
AUC ([1]; human, plasma, other: topical ophthalmic eye drops, 0.3 % suspension, single drop in each eye BID, Group 1, Day 1, read-out: AUC0-tau Geometric Mean): 2.91 ng·h/mL
concentration at 12 h ([1]; human, plasma, other: topical ophthalmic eye drops, 0.3 % suspension, single drop in each eye BID, Group 1, Day 1, read-out: C12 (trough) Geometric Mean): 0.24 ng/mL
Cmax ([1]; human, plasma, other: topical ophthalmic eye drops, 0.3 % suspension, single drop in each eye BID, Group 1, Day 1, read-out: Cmax Geometric Mean): 0.47 ng/mL
AUC ([1]; human, plasma, other: topical ophthalmic eye drops, 0.3 % suspension, single drop in each eye BID, Group 1, Day 8, read-out: AUC0-tau Geometric Mean): 6.88 ng·h/mL
concentration at 12 h ([1]; human, plasma, other: topical ophthalmic eye drops, 0.3 % suspension, single drop in each eye BID, Group 1, Day 8, read-out: C12 (trough) Geometric Mean): 0.46 ng/mL
Cmax ([1]; human, plasma, other: topical ophthalmic eye drops, 0.3 % suspension, single drop in each eye BID, Group 1, Day 8, read-out: Cmax Geometric Mean): 0.85 ng/mL
concentration at 12 h ([1]; human, plasma, other: topical ophthalmic eye drops, 0.3 % suspension, single drop in each eye BID, plasma, Day 1, mean, 12 hr post-first dose, read-out: C12): 0.29 ng/mL
AUC0-t ([1]; human, plasma, other: topical ophthalmic eye drops, 0.3 % suspension, single drop in each eye BID, plasma, Day 1, mean, to 12 hr post-first dose, read-out: AUC0-t): 3.6 ng·h/mL
concentration at 24 h ([1]; human, plasma, other: topical ophthalmic eye drops, 0.3 % suspension, single drop in each eye BID, plasma, Day 1, mean, to 24 hr post-first dose, read-out: Clast): 0.51 ng/mL
Cmax ([1]; human, plasma, other: topical ophthalmic eye drops, 0.3 % suspension, single drop in each eye BID, plasma, Day 1, mean, 0.3% suspension 1 drop each eye BID, read-out: Cmax): 0.59 ng/mL
Tmax ([1]; human, plasma, other: topical ophthalmic eye drops, 0.3 % suspension, single drop in each eye BID, plasma, Day 1, median, read-out: Tmax): 2 h
AUC0-t ([1]; human, plasma, other: topical ophthalmic eye drops, 0.3 % suspension, single drop in each eye BID, plasma, Day 8, mean (SD), read-out: AUC0-t): 12.8 ng·h/mL
AUC ([1]; human, plasma, other: topical ophthalmic eye drops, 0.3 % suspension, single drop in each eye BID, plasma, Day 8, mean (SD), read-out: AUC0-tau): 7.6 ng·h/mL
AUC ([1]; human, plasma, other: topical ophthalmic eye drops, 0.3 % suspension, single drop in each eye BID, plasma, Day 8, mean (SD), read-out: AUC24): 12.8 ng·h/mL
concentration at 12 h ([1]; human, plasma, other: topical ophthalmic eye drops, 0.3 % suspension, single drop in each eye BID, plasma, Day 8, mean (SD), read-out: C12 trough): 0.5 ng/mL
Tmax ([1]; human, plasma, other: topical ophthalmic eye drops, 0.3 % suspension, single drop in each eye BID, plasma, Day 8, median, read-out: Tmax): 1 h
Cmax ([1]; human, plasma, topical or ocular, 0.3 % suspension, single drop in each eye BID, plasma, Day 8, mean (SD), topical ocular 0.3% BID 7 days + morning dose, read-out: Cmax): 0.94 ng/mL
Cavg ([1]; plasma, Day 8, mean (SD)): 0.63 (0.30) ng/mL
Cmax [1, 3]: 0.94 (0.46) ng/mL
SMILES: O=C(Nc1c(Cl)cncc1Cl)c1ccc(OC(F)F)c(OCC2CC2)c1 [Roflumilast, N-(3,5-dichloropyrid-4-yl)-3-cyclopropylmethoxy-4-difluoromethoxybenzamide]
plasma concentrations, topical ocular route compared to oral (PO) administration ([1]; FIGS. 24-26): lower than those of PO-administered roflumilast; also recorded: significantly lower, producing a flatter concentration-time profile without a distinct Cmax peak
AUC 0-∞ [2]: 37.2 and 32.86
Plasma Cmax [2]: 8.3 ng/mL

SMILES: O=C(Nc1c(Cl)c[n+]([O-])cc1Cl)c1ccc(OC(F)F)c(OCC2CC2)c1 [Roflumilast N-oxide, 3-cyclopropylmethoxy-4-difluoromethoxy-N-(3,5-dichloropyrid-4-yl 1-oxide)benzamide]
mean plasma profile ([1]; Day 1, FIGS. 14-17): increased over the 12 hours post-first dose
plasma levels relative to roflumilast ([1]; Day 1, FIGS. 16-17): consistently higher than roflumilast after 2 hours
plasma profile, fluctuation between peak (Cmax) and trough (pre-dose) [1]: very stable, showing little fluctuation
mean peak plasma profile relative to parent ([1]; Day 8, FIGS. 22-23): consistently higher than that of the parent
PTF % (percent peak-to-trough fluctuation) ([1]; Day 8, mean (SD)): 0.287 (0.223) %
RAUC0-12 (accumulation ratio) ([1]; Day 8, mean (SD)): 9.25 (2.92)
accumulation ratios (RAUC0-12) [1]: 9.25
C12 ([1]; plasma, Day 1, mean, 12 hr post-first dose): 1.37 ng/mL
AUC0-t ([1]; plasma, Day 1, mean, to 12 hr post-first dose): 9.38 ng·h/mL
Clast ([1]; plasma, Day 1, mean, to 24 hr post-first dose): 3.49 ng/mL
Cmax ([1]; plasma, Day 1, mean, 0.3% suspension 1 drop each eye BID): 1.38 ng/mL
Tmax ([1]; plasma, Day 1, median): 11.83 h
AUC0-t ([1]; plasma, Day 8, mean (SD)): 156 (79.3) h*ng/mL
AUC0-tau ([1]; plasma, Day 8, mean (SD)): 78.4 (39.4) h*ng/mL
AUC24 ([1]; plasma, Day 8, mean (SD)): 149 (77.4)** h*ng/mL
C12 trough ([1]; plasma, Day 8, mean (SD)): 6.33 (3.35) ng/mL
Cavg ([1]; plasma, Day 8, mean (SD)): 6.53 (3.29) ng/mL
Cmax [1, 3]: 7.93 (3.88) ng/mL
Tmax ([1]; plasma, Day 8, median): 1.00 h
